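Following 48 hours of exposure in 96-well plates, responses at five concentrations were used to interpolate endpoints linearly. At the GI50, growth is halved.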 Active and inactive are the calls of the source. Rule as the data show it: active = GI50 up to about 1.1 µM and inactive = higher.
How the values were obtained:
Experiment in all cases: inhibition of tumour cell growth, NCI panel, 48 h
OVCAR-3 = test system: OVCAR-3
MDA-MB-435 = test system: MDA-MB-435
SR = test system: SR
PC-3 = test system: PC-3
SF-295 = test system: SF-295
RPMI-8226 = test system: RPMI-8226
DU-145 = test system: DU-145
Malme-3M = test system: Malme-3M
NCI-H522 = test system: NCI-H522
SW-620 = test system: SW-620
NCI-H226 = test system: NCI-H226
OVCAR-5 = test system: OVCAR-5
CAKI-1 = test system: CAKI-1
MDA-MB-231 = test system: MDA-MB-231
SN12C = test system: SN12C
UO-31 = test system: UO-31
NCI-H460 = test system: NCI-H460
HL-60 = test system: HL-60
MDA-N = test system: MDA-N
SK-MEL-28 = test system: SK-MEL-28
CCRF-CEM = test system: CCRF-CEM
786-0 = test system: 786-0
HCT-116 = test system: HCT-116
SK-OV-3 = test system: SK-OV-3
ACHN = test system: ACHN
UACC-257 = test system: UACC-257
TK-10 = test system: TK-10
T47D = test system: T47D
K562 = test system: K562
SNB-19 = test system: SNB-19
BT-549 = test system: BT-549
HOP-62 = test system: HOP-62
SF-268 = test system: SF-268
HT-29 = test system: HT-29
U-251 = test system: U-251
HCT-15 = test system: HCT-15
A549 = test system: A549
HCC 2998 = test system: HCC 2998
NCI/ADR-RES = test system: NCI/ADR-RES
MOLT-4 = test system: MOLT-4
LOX IMVI = test system: LOX IMVI
UACC-62 = test system: UACC-62
IGROV-1 = test system: IGROV-1
M14 = test system: M14
KM12 = test system: KM12
EKVX = test system: EKVX
OVCAR-4 = test system: OVCAR-4
NCI-H23 = test system: NCI-H23
SNB-75 = test system: SNB-75
MCF7 = test system: MCF7
SF-539 = test system: SF-539
A498 = test system: A498
OVCAR-8 = test system: OVCAR-8
Hs-578T = test system: Hs-578T
SK-MEL-2 = test system: SK-MEL-2
COLO 205 = test system: COLO 205
SK-MEL-5 = test system: SK-MEL-5
HOP-92 = test system: HOP-92

Q: With COC(=O)c1cc(CC2Cc3cc4c(cc3C2=O)CCC4)cc2c1CCC2 (configuration not stated) as the compound, how does the GI50 (OVCAR-3) read?
A: > 100 µM (inactive)

Q: What about the GI50 (MDA-MB-435) of the same compound?
A: > 100 µM (inactive)

Q: And the GI50 (SR)?
A: > 100 µM (inactive)

Q: And the GI50 (PC-3)?
A: 15.2 µM (inactive)

Q: And the GI50 (SF-295)?
A: 35.1 µM (inactive)

Q: And the GI50 (RPMI-8226)?
A: > 100 µM (inactive)

Q: And the GI50 (DU-145)?
A: > 100 µM (inactive)

Q: And the GI50 (Malme-3M)?
A: 37.8 µM (inactive)

Q: What about the GI50 (NCI-H522) of the same compound?
A: 54.3 µM (inactive)

Q: What about the GI50 (SW-620) of the same compound?
A: > 100 µM (inactive)

Q: And the GI50 (NCI-H226)?
A: > 100 µM (inactive)

Q: And the GI50 (OVCAR-5)?
A: > 100 µM (inactive)

Q: What about the GI50 (CAKI-1) of the same compound?
A: 64.6 µM (inactive)

Q: What about the GI50 (MDA-MB-231) of the same compound?
A: > 100 µM (inactive)

Q: And the GI50 (SN12C)?
A: > 100 µM (inactive)

Q: What about the GI50 (UO-31) of the same compound?
A: > 100 µM (inactive)

Q: And the GI50 (NCI-H460)?
A: > 100 µM (inactive)

Q: What about the GI50 (HL-60) of the same compound?
A: > 100 µM (inactive)

Q: What about the GI50 (MDA-N) of the same compound?
A: 70.6 µM (inactive)

Q: What about the GI50 (SK-MEL-28) of the same compound?
A: > 100 µM (inactive)

Q: What about the GI50 (CCRF-CEM) of the same compound?
A: > 100 µM (inactive)

Q: What about the GI50 (786-0) of the same compound?
A: 55.2 µM (inactive)

Q: What about the GI50 (HCT-116) of the same compound?
A: 42.2 µM (inactive)

Q: What about the GI50 (SK-OV-3) of the same compound?
A: > 100 µM (inactive)

Q: What about the GI50 (ACHN) of the same compound?
A: > 100 µM (inactive)

Q: What about the GI50 (UACC-257) of the same compound?
A: 77.6 µM (inactive)

Q: And the GI50 (TK-10)?
A: > 100 µM (inactive)

Q: What about the GI50 (T47D) of the same compound?
A: > 100 µM (inactive)

Q: What about the GI50 (K562) of the same compound?
A: 39.1 µM (inactive)

Q: What about the GI50 (SNB-19) of the same compound?
A: > 100 µM (inactive)

Q: What about the GI50 (BT-549) of the same compound?
A: 60 µM (inactive)

Q: What about the GI50 (HOP-62) of the same compound?
A: 53.1 µM (inactive)

Q: And the GI50 (SF-268)?
A: > 100 µM (inactive)

Q: What about the GI50 (HT-29) of the same compound?
A: 51.8 µM (inactive)

Q: What about the GI50 (U-251) of the same compound?
A: > 100 µM (inactive)

Q: And the GI50 (HCT-15)?
A: > 100 µM

Q: What about the GI50 (A549) of the same compound?
A: > 100 µM (inactive)

Q: And the GI50 (HCC 2998)?
A: > 100 µM (inactive)

Q: What about the GI50 (NCI/ADR-RES) of the same compound?
A: 81.5 µM (inactive)

Q: What about the GI50 (MOLT-4) of the same compound?
A: > 100 µM (inactive)

Q: What about the GI50 (LOX IMVI) of the same compound?
A: > 100 µM (inactive)

Q: And the GI50 (UACC-62)?
A: 95.1 µM (inactive)

Q: And the GI50 (IGROV-1)?
A: > 100 µM (inactive)

Q: What about the GI50 (M14) of the same compound?
A: 52.1 µM (inactive)

Q: What about the GI50 (KM12) of the same compound?
A: > 100 µM (inactive)

Q: What about the GI50 (EKVX) of the same compound?
A: > 100 µM (inactive)

Q: And the GI50 (OVCAR-4)?
A: 33.2 µM (inactive)

Q: What about the GI50 (NCI-H23) of the same compound?
A: > 100 µM (inactive)

Q: What about the GI50 (SNB-75) of the same compound?
A: 31.3 µM (inactive)

Q: What about the GI50 (MCF7) of the same compound?
A: 45.8 µM (inactive)

Q: And the GI50 (SF-539)?
A: > 100 µM (inactive)

Q: What about the GI50 (A498) of the same compound?
A: > 100 µM (inactive)

Q: What about the GI50 (OVCAR-8) of the same compound?
A: > 100 µM (inactive)

Q: What about the GI50 (Hs-578T) of the same compound?
A: 24.8 µM (inactive)

Q: What about the GI50 (SK-MEL-2) of the same compound?
A: 63.7 µM (inactive)

Q: And the GI50 (COLO 205)?
A: 93.3 µM (inactive)

Q: COC(=O)C1=Nc2c(C)nn(-c3ccccc3)c2N=C(c2ccccc2)C1 was tested. Which GI50 (OVCAR-3) did it give?
A: > 10 µM (inactive)

Q: What about the GI50 (MDA-MB-435) of the same compound?
A: > 10 µM (inactive)

Q: And the GI50 (SR)?
A: > 10 µM (inactive)

Q: What about the GI50 (PC-3) of the same compound?
A: > 10 µM (inactive)

Q: What about the GI50 (SK-MEL-5) of the same compound?
A: > 10 µM (inactive)

Q: And the GI50 (SF-295)?
A: > 10 µM (inactive)

Q: And the GI50 (RPMI-8226)?
A: > 10 µM (inactive)

Q: And the GI50 (DU-145)?
A: > 10 µM (inactive)

Q: And the GI50 (Malme-3M)?
A: > 10 µM (inactive)

Q: And the GI50 (NCI-H522)?
A: > 10 µM (inactive)

Q: What about the GI50 (SW-620) of the same compound?
A: > 10 µM (inactive)

Q: And the GI50 (OVCAR-5)?
A: 0.001 µM (active)

Q: What about the GI50 (CAKI-1) of the same compound?
A: > 10 µM (inactive)

Q: And the GI50 (MDA-MB-231)?
A: > 10 µM (inactive)

Q: What about the GI50 (SN12C) of the same compound?
A: > 10 µM (inactive)

Q: What about the GI50 (HL-60) of the same compound?
A: > 10 µM (inactive)

Q: And the GI50 (MDA-N)?
A: > 10 µM (inactive)

Q: What about the GI50 (SK-MEL-28) of the same compound?
A: > 10 µM (inactive)

Q: What about the GI50 (786-0) of the same compound?
A: > 10 µM (inactive)

Q: And the GI50 (HCT-116)?
A: > 10 µM (inactive)

Q: And the GI50 (SK-OV-3)?
A: > 10 µM (inactive)

Q: What about the GI50 (ACHN) of the same compound?
A: > 10 µM (inactive)

Q: What about the GI50 (UACC-257) of the same compound?
A: > 10 µM (inactive)

Q: What about the GI50 (TK-10) of the same compound?
A: > 10 µM (inactive)

Q: What about the GI50 (T47D) of the same compound?
A: > 10 µM (inactive)

Q: What about the GI50 (K562) of the same compound?
A: > 10 µM (inactive)

Q: And the GI50 (SNB-19)?
A: > 10 µM (inactive)

Q: What about the GI50 (BT-549) of the same compound?
A: > 10 µM (inactive)

Q: And the GI50 (HOP-62)?
A: > 10 µM (inactive)

Q: And the GI50 (SF-268)?
A: > 10 µM (inactive)

Q: And the GI50 (HT-29)?
A: > 10 µM (inactive)

Q: What about the GI50 (U-251) of the same compound?
A: > 10 µM (inactive)

Q: What about the GI50 (HCT-15) of the same compound?
A: > 10 µM

Q: And the GI50 (A549)?
A: > 10 µM (inactive)

Q: And the GI50 (HCC 2998)?
A: > 10 µM (inactive)

Q: And the GI50 (HOP-92)?
A: > 10 µM (inactive)

Q: And the GI50 (NCI/ADR-RES)?
A: > 10 µM (inactive)

Q: What about the GI50 (MOLT-4) of the same compound?
A: > 10 µM (inactive)

Q: And the GI50 (LOX IMVI)?
A: > 10 µM (inactive)

Q: And the GI50 (UACC-62)?
A: > 10 µM (inactive)

Q: What about the GI50 (IGROV-1) of the same compound?
A: > 10 µM (inactive)

Q: And the GI50 (M14)?
A: > 10 µM (inactive)

Q: And the GI50 (KM12)?
A: > 10 µM (inactive)

Q: And the GI50 (OVCAR-4)?
A: > 10 µM (inactive)

Q: And the GI50 (NCI-H23)?
A: > 10 µM (inactive)

Q: What about the GI50 (SNB-75) of the same compound?
A: > 10 µM (inactive)

Q: What about the GI50 (MCF7) of the same compound?
A: > 10 µM (inactive)

Q: What about the GI50 (SF-539) of the same compound?
A: > 10 µM (inactive)

Q: And the GI50 (OVCAR-8)?
A: > 10 µM (inactive)

Q: And the GI50 (Hs-578T)?
A: > 10 µM (inactive)

Q: And the GI50 (COLO 205)?
A: > 10 µM (inactive)

Source: ChEMBL document CHEMBL1201862, “PubChem BioAssay data set” (2004)
